Patent US9062074B2, “(9E)-15-(2-pyrrolidin-1-yl-ethoxy)-7,12,25-trioxa-19,21,24-triaza-tetracyclo[18.3.1.1(2.5).1(14,18)]hexacosa-1(24),2,4,9,14,16,18(26),20,22-nonaene citrate salt” (CTI BioPharma Corp., priority 2009, dated 2015)
Structures can show the parent of a compound that is named as a salt.

What was measured:
Type in all cases: physicochemical
[1] = Differential Scanning Calorimetry (DSC); details: heated at 10° C.min^−1
Protocol: Differential Scanning Calorimetry (DSC) data were collected on a Mettler DSC 823e equipped with a 34 position auto-sampler. The instrument was calibrated for energy and temperature using certified indium. Typically 0.5-3 mg of each sample, in a pin-holed aluminium pan, was heated at 10° C.min^−1 from 25° C. to 350° C. A nitrogen purge at 50 ml.min^−1 was maintained over the sample. The instrument control and data analysis software was STARe v9.10.

[2] = Thermogravimetric Analysis (TGA)
Protocol: Thermogravimetric Analysis (TGA) data were collected on a Mettler TGA/SDTA 851e equipped with a 34 position autosampler. The instrument was temperature calibrated using certified indium. Typically 5-30 mg of each sample was loaded onto a pre-weighed aluminium crucible and was heated at 10° C.min^−1 from ambient temperature to 350° C. A nitrogen purge at 50 ml.min^−1 was maintained over the sample. The instrument control and data analysis software was STARe v9.10.

[3] = Phase stability by XRPD after storage at 40° C. and 75% relative humidity for one week; details: solid form by low resolution XRPD after one week
Protocol: Condition 2 (Low Resolution)
X-Ray Powder Diffraction patterns were also collected on a Bruker D8 diffractometer using Cu K[…] radiation (40 kV, 40 mA), θ-2θ goniometer, and divergence of V4 and receiving slits, a Ge monochromator and a Lynxeye detector. The instrument is performance checked using a certified Corundum standard (NIST 1976). The software used for data collection was Diffrac Plus XRD Commander v2.5.0 and the data were analysed and presented using Diffrac Plus EVA v 11.0.0.2 or v 13.0.0.2. Samples were run under ambient conditions as flat plate specimens using powder as received. Approximately 15 mg of the sample was gently packed into a cavity cut into polished, zerobackground (510) silicon wafer. The sample was rotated in its own plane during analysis. The details of the data collection are:
The samples which had been prepared for the collection of low resolution XRPD traces were placed in a chamber maintained at 40° C. and 75% relative humidity. After one week the samples were reanalysed by low resolution XRPD (Condition 2), to check for phase changes. It can be seen that no phase change has occurred, and that citrate salts of the invention are stable for at least one week under these conditions.

[4] = Solubility assessment (solvent added in 10 volume aliquots)
Protocol: For each solvent investigated, approximately 8 mg of compound 1 was weighed into an 8 ml screw top glass vial. The solvent was added in 10 volume aliquots and the mixture sonicated and warmed (with a hot-air gun) to encourage dissolution. If dissolution was not achieved after the addition of 100 volumes of solvent, a further 100 volumes was added.

[5] = as above; remark: listed apart in the source
[6] = Gravimetric Vapour Sorption (GVS)
Protocol: Sorption isotherms were obtained using a SMS DVS Intrinsic moisture sorption analyser, controlled by SMS Analysis Suite software. The sample temperature was maintained at 25° C. by the instrument controls. The humidity was controlled by mixing streams of dry and wet nitrogen, with a total flow rate of 200 ml.min^−1. The relative humidity was measured by a calibrated Rotronic probe (dynamic range of 1.0-100% RH), located near the sample. The weight change, (mass relaxation) of the sample as a function of % RH was constantly monitored by the microbalance (accuracy ±0.005 mg). Typically 5-20 mg of sample was placed in a tared mesh stainless steel basket under ambient conditions. The sample was loaded and unloaded at 40% RH and 25° C. (typical room conditions). A moisture sorption isotherm was performed as outlined below (2 scans giving 1 complete cycle). The standard isotherm was performed at 25° C. at 10% RH intervals over a 0.5-90% RH range.
The hygroscopicity of the citrate was investigated by carrying out a gravimetric vapour sorption experiment on Batch 4. A sample of approximately 20 mg was held at 25° C. whilst the humidity of its environment was changed through two complete cycles. […] The sample takes longer to reach equilibrium in the early stages of the experiment. This may be due to displacement of residual solvent.

[7] = Polymorphism assessment (XRPD after 25° C./50° C. cycles in solvent)
Protocol: The vials were then placed in a humidity chamber and subjected to cycles of 25° C./50° C. (8 hour cycles) for 24 hours. At the end of this time the samples were examined and then left with loosened lids to allow for evaporation of the solvent. Those samples which had dried out were then transferred to a quartz array, whilst those for which there was still solvent present, were filtered under vacuum onto a sinter. The samples were then analysed by XRPD to assess their crystalline state and form.

C1=C2COC/C=C/COCc3cc(ccc3OCCN3CCCC3)Nc3nccc(n3)C(=C1)O2 [Batch 6]
Differential Scanning Calorimetry complex endotherm onset (significant thermal event) [1]: onset 176 °C | Thermogravimetric Analysis weight change ([2]; 160 to 250° C.): −20% w/w 160 to 250 °C | Thermogravimetric Analysis weight change ([2]; ambient to 160° C.): −0.3% w/w ambient to | Phase Stability 1 wk @ 40° C./75% RH [3]: Crystalline Form 1

C1=C2COC/C=C/COCc3cc(ccc3OCCN3CCCC3)Nc3nccc(n3)C(=C1)O2 [Compound I, 9E-15-(2-pyrrolidin-1-yl-ethoxy)-7,12,25-trioxa-19,21,24-triaza-tetracyclo[18.3.1.1(2,5).1(14,18)]hexacosa-1(24),2,4,9,14,16,18(26),20,22-nonaene]
total dissolution in solvent screen ([4]; 11 solvents, up to 200 volumes): total dissolution was only achieved in water

C1=C2COC/C=C/COCc3cc(ccc3OCCN3CCCC3)Nc3nccc(n3)C(=C1)O2 [citrate, 9E-15-(2-pyrrolidin-1-yl-ethoxy)-7,12,25-trioxa-19,21,24-triaza-tetracyclo[18.3.1.1(2,5).1(14,18)]hexacosa-1(24),2,4,9,14,16,18(26),20,22-nonaene citrate]
level at which the salt dissolves in water [5]: ≥ 100 mg/mL | hygroscopicity ([6]; GVS, 0% RH to 90% RH): not hygroscopic | maximum weight difference ([6]; between 0% RH and 90% RH, 25° C.): less than 1 % w/w | solubility in organic solvents ([4]; organic solvents of the screen): extremely limited | solid form of recovered solid (XRPD) ([7]; aqueous solution allowed to evaporate): amorphous | solid form of residues (XRPD) ([7]; organic solvent screening samples): Form 1
